# Patent US5266319A, “Tannin derivatives and their use for treatment of hypertension” (National Science Council, priority 1992, dated 1993)
# Columns and labels:
# [1] = test system: contraction of rat blood vessel (octopamine); assay: inhibition of octopamine-induced contraction of rat blood vessel; format: in vivo; details: octopamine 8 × 10^-4 g/kg; dose 1 mg/kg i.v.; anesthetized normal rats; Means ± S.D.; n=8
# Experimental: (§1) The effect on the contraction of rat blood vessel Norepinephrine and octopamine were injected into various anesthetized normal rats respectively, so that a contraction of rat blood vessels was induced and the blood pressure increased. […] Therefore, the tannins are potent in inhibiting the contraction of blood vessels and the effect of the tannins on the wall of blood vessel is also significant.
# [2] = lethal dosage (LD50) in rats; format: in vivo; details: rat, in vivo
# Experimental: (§2) Furthermore, the lethal dosages (LD50) for the rats were determined. The LD50 of corilagin and geraniin were greater than 100 mg/kg, and the LD50 of 6-O-galloyl-D-glucose and 1,2,3,4,6-penta-O-galloyl-D-glucose were greater than 50 mg/kg. Therefore, these four tannins can be used as a safe and effective […] drugs.
# [3] = test system: normal rats (WKY); assay: depression of tail arterial blood pressure in normal rats (WKY); format: in vivo, rat; details: injected, Means±S.D., N=11
# Experimental: (§3) The effect on the blood pressure of spontaneously hypertensive rats (SHR) and normal rats (WKY)
# (§4) The tannins obtained in the example 1 were injected into various rats respectively at different concentrations.
# (§5) The data (Means±S.D.) in table 1 represents the value of the depression range of blood pressure (N=11). In comparison to conventional antihypertensive drugs, guanethidine can depress the blood pressure of hypertensive rats in a range of 28.8±7.95 mmHg (N=8) with a injection concentration of 1 mg/kg, prazosin in a range of 31.4±7.17 mmHg (N=8) and nifedipine in a range of 10.8±2.78 mmHg (N=8) at the same concentration.
# [4] = test system: contraction of rat blood vessel (norepinephrine); assay: inhibition of norepinephrine-induced contraction of rat blood vessel; format: in vivo; details: norepinephrine 10^-6 g/kg; dose 1 mg/kg i.v.; anesthetized normal rats; Means ± S.D.; n=8
# Experimental: as §1
# [5] = test system: norepinephrine; assay: concentration of norepinephrine in blood (plasma NE); format: in vivo, rat; details: injected to the veins, after ten minutes, Means ± S.D, N=6, Control 3.55 ± 0.31
# Experimental: The effect on the concentration of norepinephrine in blood Four tannins were injected to the veins of various rats respectively at different concentrations. After ten minutes, the blood of the rats were sampled to determine the concentration of norepinephrine in their blood. Obviously, these compounds can reduce the concentration of norepinephrine,i.e., they can inhibit the secretion of norepinephrine and relax the adrenergic tension, and therefore the blood pressure can be reduced.
# [6] = test system: spontaneously hypertensive rats (SHR); assay: depression of tail arterial blood pressure in spontaneously hypertensive rats (SHR); format: in vivo, rat; details: for Depression of blood pressure, SHR: injected, Means±S.D., N=11; for depress the blood pressure of hypertensive rats (conventional antihypertensive drugs): 1 mg/kg injection, N=8
# Experimental: as §3, §4, §5
# [7] = test system: rats; assay: lethal dosage (LD50) in rats; format: in vivo
# Experimental: as §2
SMILES,"Inhibition (%), Octopamine [1]",LD50 [2],"Depression of blood pressure, WKY ([3]; 1 mg/kg)","Depression of blood pressure, WKY ([3]; 5 mg/kg)","Inhibition (%), Norepinephrine [4]",Plasma NE ([5]; 1 mg/kg),Plasma NE ([5]; 5 mg/kg),"Depression of blood pressure, SHR ([6]; 1 mg/kg)","Depression of blood pressure, SHR ([6]; 5 mg/kg)",depress the blood pressure of hypertensive rats (conventional antihypertensive drugs) [6],LD50 [7],Plasma NE ([5]; 0.5 mg/kg)
O=C(OC[C@H]1OC(O)[C@H](O)[C@@H](O)[C@@H]1O)c1cc(O)c(O)c(O)c1 (stereo partly drawn) [6-O-galloyl-D-glucose],65.3 ± 11.3%,> 50 mg/kg,5.81 ± 5.07 mmHg,5.21 ± 3.48 mmHg,64.1 ± 15.1%,2.14 ± 0.09 pmol/mL,1.76 ± 0.22 pmol/mL,17.28 ± 7.08 mmHg,24.12 ± 9.93 mmHg,,,
"COc1cc2nc(N3CCN(C(=O)c4ccco4)CC3)nc(N)c2cc1OC [prazosin, reference compound]",,,,,,,,,,31.4±7.17 mmHg,,
"O=C(OC[C@H]1O[C@@H](OC(=O)c2cc(O)c(O)c(O)c2)[C@H](OC(=O)c2cc(O)c(O)c(O)c2)[C@@H](OC(=O)c2cc(O)c(O)c(O)c2)[C@@H]1OC(=O)c1cc(O)c(O)c(O)c1)c1cc(O)c(O)c(O)c1 [1,2,3,4,6-penta-O-galloyl-D-glucose, 1,2,3,4,6-penta-O-galloyl-β-D-glucose]",72.1 ± 14.8%,> 50 mg/kg,2.62 ± 2.33 mmHg,5.74 ± 2.41 mmHg,70.6 ± 10.7%,1.94 ± 0.19 pmol/mL,1.23 ± 0.21 pmol/mL,13.28 ± 6.22 mmHg,29.57 ± 13.38 mmHg,,,
"O=C1O[C@H]2[C@@H]3OC(=O)c4cc(O)c(O)c(O)c4-c4c(cc(O)c(O)c4O)C(=O)OC[C@H]2O[C@@H](OC(=O)c2cc(O)c(O)c(O)c2)[C@@H]3OC(=O)c2cc(O)c(O)c3c2[C@@H]2C1=CC(=O)[C@](O)(O3)C2(O)O [Geraniin, geraniin]",74.8 ± 13.5%,,3.57 ± 4.72 mmHg,13.28 ± 6.67 mmHg,87.1 ± 6.5%,2.17 ± 0.09 pmol/mL,,19.28 ± 5.49 mmHg,25.85 ± 4.18 mmHg,,greater than 100 mg/kg,2.66 ± 0.19 pmol/mL
"O=C(O[C@@H]1O[C@@H]2COC(=O)c3cc(O)c(O)c(O)c3-c3c(cc(O)c(O)c3O)C(=O)O[C@H]([C@H]1O)[C@@H]2O)c1cc(O)c(O)c(O)c1 [Corilagin, corilagin]",65.5 ± 27.5%,> 100 mg/kg,3.85 ± 2.64 mmHg,10.85 ± 4.89 mmHg,83.4 ± 7.3%,1.55 ± 0.19 pmol/mL,,17.85 ± 3.38 mmHg,26.57 ± 7.92 mmHg,,,2.19 ± 0.22 pmol/mL
"N=C(N)NCCN1CCCCCCC1 [guanethidine, reference compound]",,,,,,,,,,28.8±7.95 mmHg,,
"COC(=O)C1=C(C)NC(C)=C(C(=O)OC)C1c1ccccc1[N+](=O)[O-] [nifedipine, reference compound]",,,,,,,,,,10.8±2.78 mmHg,,
